Structures can show the parent of a compound that is named as a salt.
Assays:
[1] = Cytotoxicity assay in uninfected MT-4 cells (CellTiter-glo); type: cell-based; settings: human, read-out: HIV activity and cytotoxicity data CC50
Protocol: The data was analyzed by GraphPad Prism software, and the curve was fitted and EC50 and CC50 values were calculated. EC50 refers to the effective concentration that inhibits 50% virus production, 50% virus infectivity, or 50% virus-induced cellular effects. CC50 refers to the inhibitory concentration that reduces the cell growth or viability of uninfected cells by 50%.
Viral infection and cell treatment: HIV-1 and MT-4 cells were co-incubated at 37° C., in an incubator with 5% CO2 for 1 h. The infected cells were then seeded in a cell culture plate at a certain density. The final concentration of DMSO in the cell culture medium was 0.5%. The cells were incubated at 37° C., in an incubator with 5% CO2 for 5 days. The cells tested in the cytotoxicity assay were uninfected MT-4 cells, and other test conditions were with the same as that of the antiviral activity assay.
The activity assay of the cell: the cell viability was tested by using cell viability assay reagent CellTiter-glo (Promega). The raw data was used for calculating the anti-HIV-1 activity and cytotoxicity of the Compounds.

HIV-1 = experiment: Detection of in vitro anti-HIV activity (HIV-1 infected MT-4 cells, CellTiter-glo); type: cell-based; settings: Human immunodeficiency virus 1, MT4, 120 h, 5 days, read-out: HIV activity and cytotoxicity data EC50
Protocol: Compound treatment: the test compounds and the reference compounds were 2-fold diluted with DMSO and added to the cell culture plate. The test compounds and the reference compounds were tested at 8 concentrations in duplicate.

HBV = experiment: Detection of anti-HBV activity in vitro (HepG2.2.15 cells, HBV DNA by quantitative PCR); type: cell-based; settings: Hepatitis B virus, HBV DNA in supernatant on the eighth day, read-out: HBV activity and cytotoxicity data EC50
Protocol: Anti-cell viability assay: in vitro anti-hepatitis b virus activity of Example compounds was tested in HepG2.2.15 cells with TDF as a positive control compound. Cells were seeded into a 96-well plate on the first day; the compounds were added to treat the cells on the next day; and a new culture medium containing the compounds was replaced on the fifth day. On the eighth day, the supernatant was collected for DNA extraction. The content of HBV DNA was detected by quantitative PCR. Both test compound and TDF were subjected to a 3-fold serial dilution to get 8 concentration points in duplicate. The final concentration of DMSO in the culture medium was 0.5%. The formula for calculating the percentage of inhibition is as follows: Inhibition rate=(1−copy number of HBV in sample/copy number of HBV in DMSO control group)×100%

[2] = Cytotoxicity experiments of the anti-HBV test (Cell-titer Blue); type: cell-based; settings: human, HepG2.2.15 cells, six days after treatment
Protocol: Cytotoxicity experiments: the arrangement of compounds on plate and compound-treatment process were the same as that of […] activity. Six days after the cells were treated by compounds, the cell activity was tested. Cell-titer Blue reagent was added to each well, the cells were incubated at 37° C. for 3 hours, and fluorescence values were read (560Ex/590 Em). The data were analyzed and the relative cell viability was calculated:
The percentage of cell viability was calculated using the following formula: % cell viability=(fluorescence reading of sample−fluorescence reading of culture control)/(fluorescence reading of DMSO control−fluorescence reading of culture control)×100.
Finally, the CC50 value of the compounds were calculated by the GraphPad Prism software.

[3] = Liver microsomal metabolism experiment, human liver microsomes; type: in vitro ADME; settings: pH 7.4, 1 μM compound, 0.5 mg/mL protein, NADPH
Protocol: (§1) Microsomal experiments: human liver microsomes: 0.5 mg/mL, Xenotech; rat liver microsomes: 0.5 mg/mL, Xenotech; coenzyme (NADPH/NADH): 1 mM, Sigma Life Science; magnesium chloride: 5 mM, 100 mM phosphate buffer (pH 7.4).
(§2) Preparation of stock solution: powder of Example compounds were precisely weighed and dissolved in DMSO to 5 mM.
(§3) Preparation of phosphate buffer (100 mm, pH 7.4): 0.5M pre-formulated potassium dihydrogen phosphate (150 ml) and 0.5M potassium hydrogen phosphate (700 ml) were mixed well. The pH of the mixture was then adjusted to 7.4 with 0.5M potassium hydrogen phosphate solution. The resulting solution was 5-fold diluted with ultrapure water before use, and magnesium chloride was added to the solution, affording a phosphate buffer (100 mm), containing potassium phosphate (100 mM), magnesium chloride (3.3 mM), pH 7.4. […]
(§4) Data analysis: The peak area of the corresponding compounds and internal standard was detected by LC-MS/MS system, and the peak area ratio of compounds to internal standard was calculated. The slope was measured by plotting the natural log of the percentage of the remaining amount of the compounds versus time, and t1/2 and CLint were calculated according to the following formula, where V/M is equal to 1/protein concentration.

[4] = Liver microsomal metabolism experiment, rat liver microsomes; type: in vitro ADME; settings: SD, pH 7.4, 1 μM compound, 0.5 mg/mL protein, NADPH
Protocol: as §1, §2, §3, §4

immune cells = settings: relative to TDF; cited from earlier work
[5] = relative to TDF; cited from earlier work

Row | Compound | CC50 at 5 days [1] [µM] | EC50 (HIV-1) [µM] | EC50 (HBV) [µM] | CC50 at 6 days [2] [µM] | microsomal CLint at 1 μM ([3]; read-out: Human liver microsome experiment CLint) [µL/min/mg] | half-life at 1 μM ([3]; read-out: Human liver microsome experiment t1/2(min)) [min] | microsomal CLint at 1 μM ([4]; read-out: Rat liver microsome experiment CLint) [µL/min/mg] | half-life at 1 μM ([4]; read-out: Rat liver microsome experiment t1/2(min)) [min] | concentration of TFV in immune cells metabolized by TAF, times higher than that of TDF (immune cells) [times] | concentration of TFV in plasma metabolized by TAF, lower than that of TDF [5] [%]
1 | CCCCCCCCCCCCCCCCS(=S)CCO[P@@](=O)(CO[C@H](C)Cn1cnc2c(N)ncnc21)OCOC(=O)OC(C)C (single isomer, unassigned) [Compound T-3-1] | 0.1 to 0.5 | ≤ 0.005 | 0.1 to 0.4 | > 50 |  |  |  |  |  | 
2 | CCCCCCCCCCCCCCCCS(=S)CCO[P@](=O)(CO[C@H](C)Cn1cnc2c(N)ncnc21)OCOC(=O)OC(C)C (single isomer, unassigned) [Compound T-3-2] | 0.1 to 0.5 | ≤ 0.005 | 0.1 to 0.4 | > 50 | 71 | 19.5 | 54.4 | 25.5 |  | 
3 | CC(C)OC(=O)[C@H](C)N[P@](=O)(CO[C@H](C)Cn1cnc2c(N)ncnc21)Oc1ccccc1 [TAF, Tenofovir Alafenamide Fumarate] |  |  |  |  |  |  |  |  | 4 | 90

— patent US11389463B2, “Antiviral nucleoside reverse transcriptase inhibitor” (priority 2017, dated 2022)
